Test results published in patent US20220370416A1, “COMPOUNDS AND METHODS FOR TARGETED DEGRADATION OF KRAS” (Arvinas Operations, Inc., priority 2020, published 2022).

Biological target: HiBit-KRAS^G12C (Homo sapiens, UniProt P01116, G12C)
Test: HiBit degradation assay in SW1573 HiBit-KRas^G12C cells
Assay type: cell-based
Design: expressed in transfected cells; host or cells: SW1573 (clone E6), modified pcDNA3.1 vector, TK promoter
Settings: SW1573 HiBit-KRas^G12C, 0.1% DMSO, 24 hours; read-out: KRas^G12C-HIBit (SW1573; 0.1% DMSO) DC50*
Description: Reagents. SW1573 (CRL-2170) and MiaPaCa-2 (CRL-1420) cells were purchased from ATCC. Both cell lines are […] for the G12C mutation in KRAS. SW1573 cells were cultured in DMEM+F12+Glutamax (+Sodium Bicarbonate, +sodium pyruvate, Thermofisher scientific, #10565) supplemented with 10% FBS (Thermofisher scientific, #2060357) and 1% Antibiotic-Antimycotic (Thermofisher scientific, #15240096). MiaPaCa-2 cells were cultured in DMEM+Glutamax media (Thermofisher scientific, #10566) supplemented with 10% FBS (Thermofisher scientific, #2060357) and 1% Antibiotic-Antimycotic (Thermofisher scientific, #15240096). For degradation assays, 384 well plates were purchased from Corning (Corning® CellBIND® 384-well Flat Clear Bottom Black Polystyrene Microplates, Low Flange, #3770). Gambogic acid was purchased from Selleckchem (#S2448). Alamar blue was purchased from Thermofisher scientific (A50101) and used according to manufacturer instructions. The Nano-Glo® HiBit Lytic Detection System and Nano-Glo® HiBit Blotting System were purchased from Promega (#N3050 and #N2410) and used according to manufacturer instructions.
To create the SW1573 HiBit-KRAS^G12C cell line, the nucleotide sequence encoding the 11 amino acid HiBit tag from Promega (Schwinn, M. K. et al. (2018) CRISPR-mediated tagging of endogenous proteins with a luminescent peptide. ACS Chem. Biol. 13(2), 467-474) was appended to the N-terminus of the KRAS^G12C coding sequence. This synthesized DNA was cloned into a modified pcDNA3.1 vector under the control of the thymidine kinase (TK) promoter. This HiBit-KRAS^G12C expressing plasmid was transfected into parental SW1573 cells and colonies were selected using 400 μg/mL zeocin. The resulting clonal lines were screened for expression of HiBit-KRAS^G12C protein using Nano-Glo® HiBit Blotting System. A luminescent band of the correct size for HiBit-KRAS^G12C was detected in several clones. Clone E6 was selected for further studies.
Either SW1573 HiBit-KRas^G12C or MiaPaCa-2 HiBit-KRas^G12C cells were plated at 9000 cells/well in a 384 well plate (Corning #3770). Exemplary heterobifunctional molecules and positive controls were diluted in the appropriate cell media and applied to the plated cells resulting in a final concentration titration of 10 μM to 20 nM in either 0.1% or 0.5% dimethyl sulfoxide (DMSO). Gambogic acid was used as a positive control for cytotoxicity and titrated from 10 μM to 78 nM. All assays were performed in triplicate. Cells were treated with compounds for 24 hours at 37° C. in an incubator containing 5% CO2. Following treatment, alamar blue was used to determine if any compounds led to a loss in cell viability after 24 hours. The 10× alamar blue reagent was added to a final concentration of 1× as recommended by the manufacturer and cells were returned to the incubator for 4 hours. Plates were then allowed to equilibrate to room temperature and fluorescence was measured using a Perkin-Elmer EnVision. After completion of the fluorescence read, the liquid from each well was removed and the cells were washed with PBS. The Nano-Glo® HiBiT detection reagent was prepared according to the manufacturer's instructions and added to each well after the PBS wash was removed. Following incubation at room temperature for 45 minutes, the luminescence was read using the ultra-sensitive luminescence aperture on the Envision instrument.
Fluorescence values from the alamar blue treatment were normalized to the DMSO only control for each compound titration. We hypothesized that compounds that led to a ≥50% loss in cell viability of the KRAS-independent SW1573 HiBit-KRas^G12C cells were likely generally cytotoxic and loss of HiBit-KRAS^G12C signal from these compounds may be due to lower cell number and not specific KRAS^G12C degradation. These points were therefore excluded from the data analysis for degradation. […]

HiBit-KRAS^G12C, sequence (P01116 1-186 isoform P01116-2 G12C limits assumed): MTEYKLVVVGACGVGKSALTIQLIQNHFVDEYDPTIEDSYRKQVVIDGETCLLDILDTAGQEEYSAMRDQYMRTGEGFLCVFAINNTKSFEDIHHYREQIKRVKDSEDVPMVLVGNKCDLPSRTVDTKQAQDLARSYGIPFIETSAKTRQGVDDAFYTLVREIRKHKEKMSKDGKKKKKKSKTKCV

| DC50 [nM] | SMILES |
| --- | --- |
| > 1000 | C=C(F)C(=O)N1CCN(c2nc(O[C@H](C)CN3CCC(COc4cc([C@@H](C(=O)N5C[C@H](O)C[C@H]5C(=O)N[C@@H](C)c5ccc(-c6scnc6C)cc5)C(C)C)on4)CC3)nc3c(F)c(-c4cc(O)cc5ccccc45)c(Cl)cc23)CC1 [Compound 18, (2S,4R)-1-[(2S)-2-[3-({1-[(2R)-2-({6-chloro-8-fluoro-4-[4-(2-fluoroprop-2-enoyl)piperazin-1-yl]-7-(3-hydroxynaphthalen-1-yl)quinazolin-2-yl}oxy)propyl]piperidin-4-yl}methoxy)-1,2-oxazol-5-yl]-3-methylbutanoyl]-4-hydroxy-N-[(1S)-1-[4-(4-methyl-1,3-thiazol-5-yl)phenyl]ethyl]pyrrolidine-2-carboxamide] |
| > 1000 | C=CC(=O)N1CCN(c2nc(O[C@H](C)CN3CCC(OCCOCCOCCOCCOCCOCCOCC(=O)N[C@H](C(=O)N4C[C@H](O)C[C@H]4C(=O)N[C@@H](C)c4ccc(-c5scnc5C)cc4)C(C)(C)C)CC3)nc3c(F)c(-c4cc(O)cc5ccccc45)c(Cl)cc23)CC1 [Compound 88, (2S,4R)-1-[(2S)-2-[20-({1-[(2R)-2-{[6-chloro-8-fluoro-7-(3-hydroxynaphthalen-1-yl)-4-[4-(prop-2-enoyl)piperazin-1-yl]quinazolin-2-yl]oxy}propyl]piperidin-4-yl}oxy)-3,6,9,12,15,18-hexaoxaicosanamido]-3,3-dimethylbutanoyl]-4-hydroxy-N-[(1S)-1-[4-(4-methyl-1,3-thiazol-5-yl)phenyl]ethyl]pyrrolidine-2-carboxamide] |
| > 1000 | C=CC(=O)N1CCN(c2nc(OC[C@@H]3C[C@@H](OCCOCCOCCOCCOCCOCCOCCOCCOCC(=O)N[C@H](C(=O)N4C[C@H](O)C[C@H]4C(=O)N[C@@H](C)c4ccc(-c5scnc5C)cc4)C(C)(C)C)CN3C)nc3c2CCN(c2cccc4ccccc24)C3)C[C@@H]1CC#N [Compound 74, (2S,4R)-1-[(2S)-2-(26-{[(3R,5S)-5-[({4-[(3S)-3-(cyanomethyl)-4-(prop-2-enoyl)piperazin-1-yl]-7-(naphthalen-1-yl)-5H,6H,7H,8H-pyrido[3,4-d]pyrimidin-2-yl}oxy)methyl]-1-methylpyrrolidin-3-yl]oxy}-3,6,9,12,15,18,21,24-octaoxahexacosanamido)-3,3-dimethylbutanoyl]-4-hydroxy-N-[(1S)-1-[4-(4-methyl-1,3-thiazol-5-yl)phenyl]ethyl]pyrrolidine-2-carboxamide] |
| > 1000 | C=CC(=O)N1CCN(c2nc(O[C@H](C)CN3CCC(OCCOCCOCCOCCOCCOCCOCCOCCOCC(=O)N[C@H](C(=O)N4C[C@H](O)C[C@H]4C(=O)N[C@@H](C)c4ccc(-c5scnc5C)cc4)C(C)(C)C)CC3)nc3c(F)c(-c4cc(O)cc5ccccc45)c(Cl)cc23)CC1 [Compound 84, (2S,4R)-1-[(2S)-2-[26-({1-[(2R)-2-{[6-chloro-8-fluoro-7-(3-hydroxynaphthalen-1-yl)-4-[4-(prop-2-enoyl)piperazin-1-yl]quinazolin-2-yl]oxy}propyl]piperidin-4-yl}oxy)-3,6,9,12,15,18,21,24-octaoxahexacosanamido]-3,3-dimethylbutanoyl]-4-hydroxy-N-[(1S)-1-[4-(4-methyl-1,3-thiazol-5-yl)phenyl]ethyl]pyrrolidine-2-carboxamide] |
| > 1000 | C=C(F)C(=O)N1CCN(c2nc(OCCN3CCC(OCCOc4cc([C@@H](C(=O)N5C[C@H](O)C[C@H]5C(=O)N[C@@H](C)c5ccc(-c6scnc6C)cc5)C(C)C)on4)CC3)nc3c(F)c(-c4cc(O)cc5ccccc45)c(Cl)cc23)C[C@@H]1CC#N [Compound 1, (2S,4R)-1-[(2S)-2-{3-[2-({1-[2-({6-chloro-4-[(3S)-3-(cyanomethyl)-4-(2-fluoroprop-2-enoyl)piperazin-1-yl]-8-fluoro-7-(3-hydroxynaphthalen-1-yl)quinazolin-2-yl}oxy)ethyl]piperidin-4-yl}oxy)ethoxy]-1,2-oxazol-5-yl}-3-methylbutanoyl]-4-hydroxy-N-[(1S)-1-[4-(4-methyl-1,3-thiazol-5-yl)phenyl]ethyl]pyrrolidine-2-carboxamide] |
